{"source": "patent US11969408B2", "about": "“Method for improving mitophagy in subjects” (Amazentis SA, priority 2017, dated 2024)", "key": {"[1]": {"tested_on": "genes associated with autophagy and mitophagy, mitochondrial biogenesis and dynamics, and fatty acid oxidation in skeletal muscle biopsies", "experiment": "rtPCR analysis of gene expression levels in skeletal muscle biopsies", "assay_type": "in vivo, human", "protocol": "Muscle biopsies were collected before the meal from the vastus lateralis muscle of the right leg in order to perform ex vivo measurements. Muscle biopsies were collected on Day −1 and Day 28 at pre-dose under fasted state using the Bergström biopsy needle technique. The minimal amount of each muscle tissue sample was approximately 50 mg. One third of the tissue was used for gene expression (≈50 mg), and was further divided into two equal portions: one portion for RNA analysis (≈25 mg) and one portion for DNA analysis (≈25 mg), both in a Safe-lock Tubes 2.0 ml, Eppendorf (part no. 0030.120.094). Muscle tissue was snap frozen using liquid nitrogen immediately after collection and further, long term storage will be in a −80° C. freezer. The mRNA was analysed by microarray. Quantification of mtDNA over nuclear DNA provided another measure of mitochondrial abundance. The shipment was done in dry ice by specialized carrier. Temperatures were monitored using data logger during all transport. The method used has been validated according to good clinical laboratory practices (GCLP) and ICH guideline Q2(R1) (Validation of analytical procedures) by the corresponding service provider. Every sample was analysed in at least technical duplicates for housekeeping and target genes. A Ct value (threshold cycle), corresponding to the cycle at which the fluorescence signal reaches the amplification phase, was determined for every technical replicate and gene. The method of the 2^−ΔΔCt (Livak, K., J., and Schmittgen, T. D., Methods, 2001) was then applied to determine the relative expression of each target gene. rtPCR analysis was carried out on skeletal muscle biopsies of human subjects administered urolithin A or placebo daily for 28 days to determine the expression levels of specific genes associated with autophagy and mitophagy (LAMP2, ULK1, PIK3C3, MAP1LC3B, SQSTM1, PARK2), mitochondrial biogenesis and dynamics (SIRT1, PPARGC1A, PPARA, ESRRA, MFN1, MFN2, OPA1), and fatty acid oxidation (CPT1B, FABP3). FIG. 6 provides bar graphs showing the fold-change in gene expression levels from day −1 to day 28 for each gene for patients administered 250 mg/day or 1000 mg/day urolithin A, over placebo. The bar graphs represent gene expression data, expressed as a percentage of change over placebo, i.e. a value of 0% means that there is no difference between the dose and the placebo group while a value of 100% means that there is an increase in 100% over placebo value."}, "[2]": {"tested_on": "mitochondrial content per cell in muscle tissue", "experiment": "Mitochondrial DNA copies per cell in muscle tissue", "assay_type": "in vivo, human", "conditions": "1000 mg per day for 28 days compared with placebo", "protocol": "Muscle biopsies were collected on Day −1 and Day 28 at pre-dose under fasted state using the Bergström biopsy needle technique. The minimal amount of each muscle tissue sample was approximately 50 mg. One third of the tissue was used for gene expression (≈50 mg), and was further divided into two equal portions: one portion for RNA analysis (≈25 mg) and one portion for DNA analysis (≈25 mg), both in a Safe-lock Tubes 2.0 ml, Eppendorf (part no. 0030.120.094). Muscle tissue was snap frozen using liquid nitrogen immediately after collection and further, long term storage will be in a −80° C. freezer. The mRNA was analysed by microarray. Quantification of mtDNA over nuclear DNA provided another measure of mitochondrial abundance. The shipment was done in dry ice by specialized carrier. Temperatures were monitored using data logger during all transport. Increasing mitochondrial content per cell in muscle tissue was also observed following dosage of 1000 mg urolithin A per day for 28 days compared with placebo."}, "[3]": {"conditions": "1000 mg/day for 28 days, over placebo, P<0.05 Dunnett post-hoc"}}, "data": [{"molecule": "O=c1oc2cc(O)ccc2c2ccc(O)cc12", "note": "[Urolithin A]", "values": [{"measurement": "Ulk1 gene expression change", "setting": "[1]; 1000 mg vs placebo, ANOVA p=0.0524, Dunnett p=0.0180", "value": "close to significant"}, {"measurement": "Ppargc1a gene expression change", "setting": "[1]; 1000 mg vs placebo, ANOVA p=0.1026, Dunnett p=0.0673", "value": "close to significant"}, {"measurement": "Cpt1b gene expression change", "setting": "[1]; 1000 mg vs placebo, ANOVA p=0.1362, Dunnett p=0.0805", "value": "close to significant"}, {"measurement": "Park2 gene expression change", "setting": "[1]; 1000 mg vs placebo, ANOVA p=0.2504, Dunnett p=0.1500", "value": "close to significant"}, {"measurement": "expression of genes associated with autophagy, mitochondrial function, and/or fatty acid oxidation", "setting": "[1]; 1000 mg/day for 28 days, day 28 vs day −1, over placebo", "value": "upregulation"}, {"measurement": "FABP3 gene expression (fatty acid oxidation-related)", "setting": "[1]; [3]", "value": "significant upregulation"}, {"measurement": "LAMP2 gene expression (autophagy/mitophagy-related)", "setting": "[1]; [3]", "value": "significant upregulation"}, {"measurement": "mitochondrial content per cell in muscle tissue (mitochondrial DNA copies per cell)", "setting": "[2]", "value": "Increasing"}]}]}
